# From patent publication US20260297060A1, “COMPOUNDS FOR THE DEGRADATION OF MUTANT BRAF” (C4 THERAPEUTICS, INC., priority 2023, published 2026)
# Legend:
# [1] = system: A375; assay: A375 cell viability assay (Example 15); format: cell-based, human; conditions: for cytotoxicity (in words): A375 cells; for effect on cancer cell viability: human, a375 cells, 0.1 µM
# Description: FIG. 83 is a line graph showing the results of Compound 26, Compound 26-NMe, Compound 141, and Compound 141-NMe in an A375 viability assay. The y-axis is viability in % and the x-axis is concentration (nM). The experiment was conducted as described in Example 15.
# This robust degradation activity is surprising in view of the minimal inhibition-based activity of selected compounds. […] However, the degradation deficient versions of Compound 26 and Compound 141 (N-methyl analogs) had minimal effect on cell viability at a concentration of 100 nM (see FIG. 83 and Example 15).
# [2] = system: A375 cells; assay: A375 Cell Viability Assay (CTGlo), Example 16; format: cell-based, human; conditions: 72 h, 10-point dose series, in words (FIG. 83)
# Description: The effect of compounds of the invention on cell viability was assessed based on the quantification of ATP using the CellTiter-Glo® 2.0 (referred to here as CTGlo) Cell Viability Assay (Catalog No. G9243, Promega, Madison, WI, USA), which signals the presence of metabolically active cells.
# A375 cells were obtained from ATCC (Catalog No. CRL-1619, Manassas, VA, USA) (also referred to here as A375.1) and were maintained in DMEM, (Corning, Catalog No. 10-017-CV, Glendale, AZ, USA) supplemented with 10% fetal bovine serum (FBS; Catalog No. 16000044, Gibco, Grand Island, NY, USA) at 37° C. in an atmosphere of 5% CO2 in air. The cells were routinely sub-cultured to maintain cell density between 3×10^5-1.5×10^6 cells/mL. […] An aliquot of cell suspension was diluted 2× with a 0.4% Trypan Blue solution (Catalog No. 15250061, ThermoFisher Scientific, Waltham, MA, USA) and cell count was determined. […]
# Test compounds were prepared by dissolving neat compounds in dimethyl sulfoxide (DMSO; Catalog No. D8418, Sigma-Aldrich, Inc., St. Louis, MO, USA) to generate 10 mM stock solution and stored at −20° C. […] CellTiter-Glo® reagent was then added to the cells and luminescence signals were measured after 4 hours using an EnVision™ Multimode plate reader (Perkin Elmer, Santa Clara, CA). […]
SMILES,cytotoxicity (in words) [1],effect on cancer cell viability [1] [%],impact on viability of A375 cells [2]
"CCN(C)S(=O)(=O)Nc1ccc(F)c(Oc2ccc3ncn([C@H]4COC5(CCN(C6CC7(C6)CN(c6cc8c(cc6F)c(N6CCC(=O)NC6=O)nn8C)C7)CC5)C4)c(=O)c3c2)c1C#N [Compound 26, (3R)-3-[6-[2-cyano-3-[[ethyl(methyl)sulfamoyl]amino]-6-fluoro-phenoxy]-4-oxo-quinazolin-3-yl]-8-[2-[3-(2,4-dioxohexahydropyrimidin-1-yl)-5-fluoro-1-methyl-indazol-6-yl]-2-azaspiro[3.3]heptan-6-yl]-1-oxa-8-azaspiro[4.5]decane]",potent cytotoxic agents,≥ 30,significant impact on the viability of A375 cells
"CCN(C)S(=O)(=O)Nc1ccc(F)c(Oc2ccc3ncn(C4CC5(CCN(C6CC7(C6)CN(c6cc8c(cc6F)c(N6CCC(=O)NC6=O)nn8C)C7)CC5)C4)c(=O)c3c2)c1C#N (stereo not drawn) [Compound 141, 6-[2-cyano-3-[[ethyl(methyl)sulfamoyl]amino]-6-fluoro-phenoxy]-3-[7-[2-[3-(2,4-dioxohexahydropyrimidin-1-yl)-5-fluoro-1-methyl-indazol-6-yl]-2-azaspiro[3.3]heptan-6-yl]-7-azaspiro[3.5]nonan-2-yl]-4-oxo-quinazoline]",potent cytotoxic agents,≥ 30,significant impact on the viability of A375 cells
